Test results as given in patent US20140228287A1, “1-[(3-CYANO-PYRIDIN-2-YL)METHYL]-3-METHYL-7-(2-BUTYN-1-YL)-8-[3-(R)-AMINO-PIPERIDIN-1-YL]-AXANTHINE FOR THE TREATMENT OF A METABOLIC DISORDER OF A PREDOMINANTLY CARNIVOROUS NON-HUMAN ANIMAL” (BOEHRINGER INGELHEIM VETMEDICA GMBH, priority 2010, published 2014).
Structures can show the parent of a compound that is named as a salt. Where two headings read alike, the source gives them in different places.

Legend:
DPP IV [1] = molecular target: T1, DPP IV (Felis catus, UniProt Q9N2I7); experiment: Exploratory multiple dose PK/PD (1.0/3.0/9.0 mg/animal, 14 days) in cats: DPP IV activity; type: in vivo, cat; conditions: for response vs control in vivo at 3 mg/animal: head 3 mg/animal (title 3.0 mg/animal); for response vs control in vivo at 3 mg/animal / response vs control in vivo at 9 mg/animal / response vs control in vivo at 1 mg/animal: read-out: DPP IV activity in cat plasma; for response vs control in vivo at 1 mg/animal: head 1 mg/animal (title 1.0 mg/animal)
T1 construct: Blood samples for the determination of this compound and DPP IV activity were collected; from tissue; host or cells: plasma of domestic short hair / purpose-bred cats dosed orally
T1 sequence (Q9N2I7 38-765 limits assumed): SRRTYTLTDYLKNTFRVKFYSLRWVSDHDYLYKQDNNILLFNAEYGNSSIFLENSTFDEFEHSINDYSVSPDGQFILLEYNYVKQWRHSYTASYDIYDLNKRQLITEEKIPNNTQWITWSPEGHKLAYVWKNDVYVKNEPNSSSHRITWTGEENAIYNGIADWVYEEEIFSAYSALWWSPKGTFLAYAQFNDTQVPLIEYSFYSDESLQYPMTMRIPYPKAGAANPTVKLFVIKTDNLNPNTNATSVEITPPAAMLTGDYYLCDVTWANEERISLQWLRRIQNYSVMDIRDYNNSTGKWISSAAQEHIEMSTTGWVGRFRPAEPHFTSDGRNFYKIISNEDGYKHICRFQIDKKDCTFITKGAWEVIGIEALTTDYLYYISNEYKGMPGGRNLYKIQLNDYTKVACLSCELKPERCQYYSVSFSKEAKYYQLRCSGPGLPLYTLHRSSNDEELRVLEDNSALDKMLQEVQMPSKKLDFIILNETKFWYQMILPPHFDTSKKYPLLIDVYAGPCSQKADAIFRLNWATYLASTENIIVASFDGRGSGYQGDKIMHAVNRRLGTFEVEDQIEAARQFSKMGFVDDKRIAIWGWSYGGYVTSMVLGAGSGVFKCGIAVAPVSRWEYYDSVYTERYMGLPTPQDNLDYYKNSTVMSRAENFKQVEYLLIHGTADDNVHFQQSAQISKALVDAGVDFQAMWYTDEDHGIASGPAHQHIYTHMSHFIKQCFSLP
Description: The aim of this study was to investigate the PK/PD effects of 1-[(3-cyano-pyridin-2-yl)methyl]-3-methyl-7-(2-butyn-1-yl)-8-[3-(R)-amino-piperidin-1-yl]-xanthine in cats following repeated oral administration of 0, 1, 3 and 9 mg/animal over 14 days corresponding to a dose of 0, 0.25, 0.75 and 2.25 mg/kg body weight for a cat weighing 4 kg. (Dosages were based on the free base: 1 mg 1-[(3-cyano-pyridin-2-yl)methyl]-3-methyl-7-(2-butyn-1-yl)-8-[3-(R)-amino-piperidin-1-yl]-xanthine monohydrochloride corresponds to 0.923 mg 1-[(3-cyano-pyridin-2-yl)methyl]-3-methyl-7-(2-butyn-1-yl)-8-[3-(R)-amino-piperidin-1-yl]-xanthine free base).
For this purpose, twelve clinically healthy male adult domestic short hair cats with a body weight range of 3.5-4.8 kg were used. The animals were randomly allocated to 4 groups, 3 animals per group. All animals were treated once daily orally for 14 days (i.e. on days 0-13). The test article was administered via capsules at doses of 1 (group II), 3 (group III) or 9 (group IV) mg of the monohydrochloride compound per animal; group I received placebo serving as controls. Blood samples for PK and PD (DPP IV activity) investigations were drawn at 0 h (i.e. prior to the 1st treatment), 0.5, 1, 2, 4, 8, 12 and 24 h after the 1st treatment as well as 24 h after the 3rd, 5th, 7th, 9th, 11th and 13th treatment and 0.5, 1, 2, 4, 8, 12 and 24 h after the 14th treatment.

DPP IV [2] = molecular target: T1, DPP IV; experiment: PK/PD studies in cats, summary; type: in vivo, cat
Description: PK/PD studies to measure the effect of different doses of 1-[(3-cyano-pyridin-2-yl)methyl]-3-methyl-7-(2-butyn-1-yl)-8-[3-(R)-amino-piperidin-1-yl]-xanthine CL on DPP IV activity, are presented in the experimental part of this application. […] Larger degrees of DPP IV inhibition, e.g. more than 80% in 24 h can be reached by increased doses. The duration of DPP IV inhibition can be prolonged with higher dosages.

[3] = 312.5 h, once daily oral 14 days, 312.5 h
[4] = 313 h, once daily oral 14 days, 313 h
[5] = 314 h, once daily oral 14 days, 314 h
[6] = 316 h, once daily oral 14 days, 316 h
[7] = 320 h, once daily oral 14 days, 320 h
[8] = 324 h, once daily oral 14 days, 324 h
[9] = 336 h, once daily oral 14 days, 336 h

In the case of `CC#CCn1c(N2CCC[C@@H](N)C2)nc2c1c(=O)n(Cc1ncccc1C#N)c(=O)n2C` [1-[(3-cyano-pyridin-2-yl)methyl]-3-methyl-7-(2-butyn-1-yl)-8-[3-(R)-amino-piperidin-1-yl]-xanthine monohydrochloride], the response vs control in vivo at 3 mg/animal (DPP IV [1]; 312 h, once daily oral 14 days, 312 h) is reported as 34%, the response vs control in vivo at 9 mg/animal (DPP IV [1]; 312 h, head 9 mg/animal (title 9.0 mg/animal), once daily oral 14 days, 312 h) is reported as 17.3% and the response vs control in vivo at 1 mg/animal (DPP IV [1]; [3]) is reported as 14%. It also gave a response vs control in vivo at 3 mg/animal (DPP IV [1]; [3]) of 9%, a response vs control in vivo at 9 mg/animal (DPP IV [1]; 312.5 h, head 9 mg/animal (title 9.0 mg/animal), once daily oral 14 days, 312.5 h) of 10% and a response vs control in vivo at 1 mg/animal (DPP IV [1]; [4]) of 14%. The response vs control in vivo at 3 mg/animal (DPP IV [1]; [4]) was 8.3%, the response vs control in vivo at 9 mg/animal (DPP IV [1]; 313 h, head 9 mg/animal (title 9.0 mg/animal), once daily oral 14 days, 313 h) was 7.7% and the response vs control in vivo at 1 mg/animal (DPP IV [1]; [5]) was 13.3%. For the same compound, the response vs control in vivo at 3 mg/animal (DPP IV [1]; [5]) was 8.7%, the response vs control in vivo at 9 mg/animal (DPP IV [1]; 314 h, head 9 mg/animal (title 9.0 mg/animal), once daily oral 14 days, 314 h) was 7.7% and the response vs control in vivo at 1 mg/animal (DPP IV [1]; [6]) was 14.7%. For the same compound, the response vs control in vivo at 3 mg/animal (DPP IV [1]; [6]) was 9.7%, the response vs control in vivo at 9 mg/animal (DPP IV [1]; 316 h, head 9 mg/animal (title 9.0 mg/animal), once daily oral 14 days, 316 h) was 8% and the response vs control in vivo at 1 mg/animal (DPP IV [1]; [7]) was 22.3%. The response vs control in vivo at 3 mg/animal (DPP IV [1]; [7]) was 12.3%, the response vs control in vivo at 9 mg/animal (DPP IV [1]; 320 h, head 9 mg/animal (title 9.0 mg/animal), once daily oral 14 days, 320 h) was 10.3% and the response vs control in vivo at 1 mg/animal (DPP IV [1]; [8]) was 32.3%. It also gave a response vs control in vivo at 3 mg/animal (DPP IV [1]; [8]) of 15%, a response vs control in vivo at 9 mg/animal (DPP IV [1]; 324 h, head 9 mg/animal (title 9.0 mg/animal), once daily oral 14 days, 324 h) of 12% and a response vs control in vivo at 1 mg/animal (DPP IV [1]; [9]) of 67.7%. For the same compound, the response vs control in vivo at 3 mg/animal (DPP IV [1]; [9]) was 31.3%, the response vs control in vivo at 9 mg/animal (DPP IV [1]; 336 h, head 9 mg/animal (title 9.0 mg/animal), once daily oral 14 days, 336 h) was 18.7% and the “time up to which mean DPP IV values remained ≦20% after 1st treatment” value (DPP IV [1]; group II (1 mg per animal)) was 8 h. The “time up to which mean DPP IV values remained ≦20% after the 14th treatment” value (DPP IV [1]; group II (1 mg per animal)) was 4 h, the “minimum mean DPP IV values after treatment on day 0” value (from here on “minimum mean DPP IV values”) (DPP IV [1]; group II (1 mg per animal), at 1 h) was 9% and the “mean DPP IV activity, range 24 h after 3rd-13th treatment (72-312 h)” value (“mean DPP IV activity, range 24 h” for short) (DPP IV [1]; group II (1 mg/cat)) was 33-63%. The “time up to which mean DPP IV values remained ≦20% after 1st treatment” value (DPP IV [1]; group III (3 mg per animal)) was 12 h, the “time up to which mean DPP IV values remained ≦20% after the 14th treatment” value (DPP IV [1]; group III (3 mg per animal)) was 12 h and the “minimum mean DPP IV values” value (DPP IV [1]; group III (3 mg per animal), at 2 and 4 h) was 8%. The “mean DPP IV activity, range 24 h” value (DPP IV [1]; group III (3 mg/cat)) was 19-41%, the “time up to which mean DPP IV values remained ≦20% after 1st treatment” value (DPP IV [1]; group IV (9 mg per animal)) was 24 h and the “time up to which mean DPP IV values remained ≦20% after the 14th treatment” value (DPP IV [1]; group IV (9 mg per animal)) was 24 h. The “minimum mean DPP IV values” value (DPP IV [1]; group IV (9 mg per animal), at 1 and 2 h) was 7%, the “mean DPP IV activity, range 24 h” value (DPP IV [1]; group IV (9 mg/cat)) was 14-18% and the “DPP IV activity in cat plasma” value (DPP IV [1]; head 9 mg/animal (title 9.0 mg/animal), once daily oral 14 days, 312.5 h, monohydrochloride) was 10.0%. The “doses leading to a significant DPP IV inhibition” value (DPP IV [2]) was “more than 0.1 mg/kg” and the “DPP IV inhibition in 24 h” value (DPP IV [2]; achieved with 1 to 3 mg/kg (˜3 to 9 mg per cat, or 4 to 30 nmol/l in cat plasma)) was “more than 70%”.
